Read-outs that look alike come from different tables or passages of the source.
Columns and labels:
[1] = DPPH free radical scavenging assay; settings: 1.0 mL sample 0.5 mg/mL + 2 mL DPPH 0.2 mg/mL, 30 min, 517 nm
Protocol: The DPPH assay was carried out to estimate the antioxidant potential among all the compounds [29]. Then, 2 mL (0.2 mg/mL in methyl alcohol) of DPPH was mixed with 1.0 mL (0.5 mg/mL in methyl alcohol) of the sample solution in a test tube. All the reaction tubes were covered with aluminum foil and kept aside for 30 min to complete the reaction. The activity was carried out in a dark room. […] A UV-visible spectrophotometer was employed to observe a reduction in the concentration of free radicals at 517 nm. The absorbance of the control (1.0 mL methanol + 2 mL DPPH solution) was also measured. All samples were evaluated in a triplicate manner, and the mean results were recorded. The standard antioxidant (ascorbic acid) was evaluated and set as a reference/standard. The percentage of inhibition (%) was calculated using the following formula in terms of scavenging activity(S):S (%) = [(Ab − Aa)/Ab] × 100(1) where Ab = Absorbance of control; and Aa = Absorbance of the test sample

thoracic aorta segments = assay: Inhibition of phenylephrine-induced contraction on isolated aorta rings; parameters: species or system male Wistar rats; settings: compounds 10^−4 M in organ bath, phenylephrine 10^−6 M, n = 5
Protocol: (§1) Cervical disruption was used to eliminate male Wistar rats weighing 200 g and 300 g. The thoracic aorta segments (3 mm to 5 mm) were slightly pressed and […]. The tissues were placed in an organ bath filled with 10 mL of Krebs-Henseleit solution and kept at 37 °C. Then 95% oxygen and 5% carbon dioxide were passed through the above-mentioned solution. To record organ responses to phenylephrine, (10^−6 M) (Sigma, St. Louis, MO, USA) simulated contractions; isometric transducers and Gemini recorders (Ugo Basile, Varese, Italy) were assembled. Aortic rings were recon traced with phenylephrine (10^−6 M) and subjected to acetylcholine (10^−6 M) for recording endothelium-dependent relaxations (EDR). All synthesized compounds along with the standard (valsartan) were mixed in DMSO; whereas synthesized derivatives of concentration 10^−4 M were added in an organ bath. In conscious rats, systolic blood pressure was recorded by applying the tail-cuff method. Wistar rats of 200 g to 250 g weight were selected and divided into groups of five individuals. The chemicals were injected intraperitoneally at a dosage of 80 mg/kg body weight. The tail-cuff and a piezoelectric pulse sensor were coupled to a blood pressure analyzer and were positioned at the base of the tail (May 9610, Ankara, Turkey).
(§2) All results were presented as the mean of SEM. (n = 5) and test compounds were employed for statistical significance determination.

conscious rats = assay: Antihypertensive effect, systolic blood pressure by tail-cuff method in conscious rats; assay type: in vivo, Wistar rats; settings: 80 mg/kg intraperitoneally, n = 5, Control 108.28 ± 6.87, DMSO 81.10 ± 3.21
Protocol: as §1, §2

urease = urease (Canavalia ensiformis, UniProt P07374); assay: biochemical; assay type: biochemical
Chain of urease (P07374 whole entry, looked up): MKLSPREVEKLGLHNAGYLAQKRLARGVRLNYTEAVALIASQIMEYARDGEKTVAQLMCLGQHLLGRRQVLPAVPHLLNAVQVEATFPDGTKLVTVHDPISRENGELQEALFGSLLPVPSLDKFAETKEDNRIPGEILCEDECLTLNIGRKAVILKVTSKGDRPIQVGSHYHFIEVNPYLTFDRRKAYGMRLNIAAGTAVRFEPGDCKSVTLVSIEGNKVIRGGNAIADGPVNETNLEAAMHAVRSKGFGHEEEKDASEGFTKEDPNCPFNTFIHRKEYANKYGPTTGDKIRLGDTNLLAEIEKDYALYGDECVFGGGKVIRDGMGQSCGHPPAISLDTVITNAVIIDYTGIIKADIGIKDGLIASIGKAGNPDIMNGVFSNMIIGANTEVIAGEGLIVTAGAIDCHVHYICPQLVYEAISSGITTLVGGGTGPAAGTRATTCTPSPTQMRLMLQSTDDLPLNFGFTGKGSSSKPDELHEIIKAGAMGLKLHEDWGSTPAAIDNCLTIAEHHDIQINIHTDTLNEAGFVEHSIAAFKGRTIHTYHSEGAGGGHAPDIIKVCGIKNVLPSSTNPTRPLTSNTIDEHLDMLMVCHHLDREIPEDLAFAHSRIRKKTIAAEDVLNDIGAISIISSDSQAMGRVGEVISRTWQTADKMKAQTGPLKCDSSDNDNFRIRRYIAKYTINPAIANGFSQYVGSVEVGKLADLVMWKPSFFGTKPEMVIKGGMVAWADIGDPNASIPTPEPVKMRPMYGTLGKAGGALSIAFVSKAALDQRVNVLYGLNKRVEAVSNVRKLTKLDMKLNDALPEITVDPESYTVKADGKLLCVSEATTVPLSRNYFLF
Protocol: The activity performed was an improved procedure of the Berthelot assay. […] For 5 min, the mixture was incubated at 37 °C. Each well in a 96-well plate received 40 µL of urea stock solution (20 mM); incubated for 10 min at 37 °C. Afterwards, 115 µL phenol hypochlorite (45 µL phenol + 70 µL alkali) per well was added. Furthermore, all the contents were incubated for 10 min at 37 °C. Absorbance at 625 nm was measured. Using the provided formula, the % of enzyme-inhibition and IC-50 values were computed Inhibition (%age) = [Control − test/100(control)] where Control = [Total enzyme activity minus inhibitor]. The test is the test compounds’ activity

Bacillus pumilus = assay: Antibacterial agar-well diffusion; assay type: cell-based; settings: sample 100 mg/5 mL in DMSO; ceftriaxone sodium 20 mg/10 mL; 37 °C, 24 h; 6 mm wells
Protocol: (§3) After sterilizing the Mueller Hinton agar medium on plates in an autoclave and allowing it to cool to roughly 45 °C, a 100 µL standard inoculum was aseptically mixed, chilled till 37 °C, and 6 mm wells were formed in the inoculated plates. The volume of 100 μL (100 mg/5 mL in DMSO), ceftriaxone sodium (20 mg/10 mL in DMSO) as a positive control, and pure DMSO as a negative control; 30 μL of the sample solution was incorporated into these wells. These primed plates were incubated at 37 °C for 24 h prior to record inhibitory zones in millimeters.

Escherichia coli = assay: Antibacterial agar-well diffusion; assay type: cell-based; settings: sample 100 mg/5 mL in DMSO; ceftriaxone sodium 20 mg/10 mL; 37 °C, 24 h; 6 mm wells
Protocol: as §3

Pseudomonas aeruginosa = assay: Antibacterial agar-well diffusion; assay type: cell-based; settings: sample 100 mg/5 mL in DMSO; ceftriaxone sodium 20 mg/10 mL; 37 °C, 24 h; 6 mm wells
Protocol: as §3

Staphylococcus aureus = assay: Antibacterial agar-well diffusion; assay type: cell-based; settings: sample 100 mg/5 mL in DMSO; ceftriaxone sodium 20 mg/10 mL; 37 °C, 24 h; 6 mm wells
Protocol: as §3

[2] = urease, pH 7.0, 37 °C, read-out: IC50 ± SEM

Structure (SMILES)	%Age Inhibition ± SEM [1]	%ge inh. of Phenylephrine Cont. (±SEM) (thoracic aorta segments)	Mean of Systolic Blood Pressure ± SEM (conscious rats)	IC50 (urease; [2])	Zone of Inhibition Gram +ve Bacteria B.pumilus Mean ± SEM (Bacillus pumilus)	Zone of Inhibition Gram -Ve Bacteria E. coli Mean ± SEM (Escherichia coli)	Zone of Inhibition Gram -Ve Bacteria P. aeruginosa Mean ± SEM (Pseudomonas aeruginosa)	Zone of Inhibition Gram +ve Bacteria S. aureus Mean ± SEM (Staphylococcus aureus)	inhibition at 100 µM (thoracic aorta segments; Rattus norvegicus, read-out: %ge inh. of Phenylephrine Cont. (±SEM))	IC50 (urease)	folds more urease inhibition than standard Thiourea (urease; relative to Thiourea IC50)
CCCCC(=O)N(Cc1ccc(-c2ccccc2-c2nn[nH]n2)cc1)C(C(=O)Oc1ccc2ccccc2c1)C(C)C (centres unmarked) [AV10, naphthalen-2-yl 2-(N-((2′-(2H-tetrazol-5-yl)-[1,1′-biphenyl]-4 yl)methyl)pentanamido)-3methyl butanoate]	94.4 ± 0.52%	69.8 ± 6.7%	75.82 ± 4.12	2050 ± 1050 nM	10.30 ± 0.21 millimeters	10.40 ± 0.56 millimeters	12.63 ± 0.63 millimeters	12.13 ± 0.37 millimeters			
CCCCC(=O)N(Cc1ccc(-c2ccccc2-c2nn[nH]n2)cc1)C(C(=O)Oc1ccc(C=O)cc1)C(C)C (centres unmarked) [AV6, 4-formylphenyl2-(N-((2′-(2H-tetrazol-5-yl)-[1, 1′-biphenyl]-4yl)methyl)pentanamido)-3methyl butanoate]	76.3 ± 0.46%	67.4 ± 5.1%	81.21 ± 3.21	2130 ± 970 nM	11.76 ± 1.06 millimeters	09.73 ± 0.44 millimeters	10.73 ± 0.28 millimeters	12.86 ± 0.72 millimeters			
CCCCC(=O)N(Cc1ccc(-c2ccccc2-c2nn[nH]n2)cc1)C(C(=O)Oc1ccccc1C(=O)O)C(C)C (centres unmarked) [AV11, 2-((2-(N-((2′-(2H-tetrazole-5-yl)-[1,1′-biphenyl]-4yl)methyl)pentanamido)-3-methylbutanoyl)oxy) benzoic acid]	95.6 ± 0.54%		72.71 ± 3.21		10.66 ± 0.52 millimeters	10.01 ± 0.55 millimeters	11.46 ± 0.53 millimeters	12.53 ± 0.68 millimeters	70.8 ± 7.7%	2190 ± 170 nM	
CCCCC(=O)N(Cc1ccc(-c2ccccc2-c2nn[nH]n2)cc1)C(C(=O)Oc1cc(C)ccc1C(C)C)C(C)C (centres unmarked) [AV8, 2-isopropyl-5-methylphenyl 2-(N-((2′-(2H-tetrazol-5yl)-[1, 1′-biphenyl]-4 yl)methyl)pentanamido)-3methyl butanoate]	95.3 ± 0.55%	71.6 ± 6.5%	71.56 ± 4.32		12.6 ± 0.60 millimeters	11.21 ± 0.41 millimeters	12.23 ± 0.27 millimeters	12.66 ± 1.06 millimeters			3 folds

Source: publication PMC9959676 (Molecules, 2023)
